{
  "source": "patent US9439986B2",
  "about": "“Tricarbonyl technetium-99m, rhenium-185/187, or rhenium-188 labeled cyclic RGD derivatives and uses thereof” (BIO IMAGING KOREA CO., LTD., priority 2010, dated 2016)",
  "key": {"tumor": {"test_system": "tumor", "experimental": "The small-animal SPECT/CT was used to acquire static imaging of the mice for 60 minutes after the injection. The imaging protocol consisted of repetition of emission and transmission as follows: [10 min emission+transmission]×6 times"}, "integrin αvβ3": {"test_system": "integrin αvβ3", "details": "cRGDyV 18 mg/Kg tail vein 10 minutes before; at 25 minutes post-injection; compared to images of FIG. 6", "experimental": "Upon injection, SPECT/CT images were acquired under following conditions:\nThe animal models were anesthetized with 2% isofluorane gas for the duration of image acquisition time, and the tumor size of the animal models was 0.4 cc. CT images were taken under condition of 45 v, 178 μA for 4 min and 30 sec., and acquired at 10 minute intervals for total 9 times (i.e., for 90 minutes after the injection)."}, "subcutaneous tumor": {"test_system": "subcutaneous tumor", "test": "Tumor growth suppression and treatment performance of rhenium-188 labeled derivative in tumor model mice (I)", "format": "in vivo", "experimental": "Treatment effect experiment was conducted to investigate the ability of tricarbonyl rhenium-188 labeled cyclic RGD derivative to suppress tumor growth.\nThe rhenium-188 labeled cyclic RGD derivative of Example 5 was injected once in a week, for four weeks. The models to determine treatment effect were divided into small radioactive injection group (300 μCi) and large radioactive injection group (600 μCi), and at the same time, a control group injected with sterilized saline and a comparative group injected with 100 μg of cyclic RGD (cRGDyV) intraperitoneally everyday, were also set. The compound of Example 11 and the sterilized saline were administered through tail veins. The CT images was taken once a week, to visually measure the growth and size of the subcutaneous tumor. The tumor was actually measured three times a week using Vernier Calipers, and the weights of the animal models were also consistently measured three times a week for total 4 weeks."}, "[1]": {"details": "100 μg cyclic RGD (cRGDyV) intraperitoneally everyday, initial tumor size 0.7 cc"}, "[2]": {"details": "600 μCi once a week for four weeks"}, "[3]": {"details": "600 μCi once a week, 0.3 cc at initial measurement"}},
  "data": [
    {"substance": "(tricarbonyl [^188Re]rhenium-N-α-bis-hydroxycarbonyl methyl-aspartic acid)-[cyclic(lysine-alginine-glycine-aspartic acid-D-phenylalanine)]2 [Example 12]", "values": [
      {"measurement": "CD31 blood vessel staining of tumor tissue slice", "setting": "tumor; 600 μCi/200 μL", "value": "no clear vessels were observed"},
      {"measurement": "integrin αvβ3 distribution in tumor tissue slice using Q-dot RGD derivatives", "setting": "tumor; 600 μCi/200 μL", "value": "most integrin was damaged"},
      {"measurement": "reduction of uptake rate in tumor (SPECT with the compound of Example 15) versus non-administered model", "setting": "tumor; 600 μCi/200 μL, SPECT after three days", "value": 59, "unit": "%"},
      {"measurement": "distribution of blood vessels around the tumor (photographs of removed tumors)", "setting": "tumor; 600 μCi/200 μL, versus non-administered model", "value": "noticeably less distribution of ambient blood vessels"}
    ]},
    {"substance": "(tricarbonyl-[^99mTc]technetium-N-α-bis-hydroxycarbonyl methyl-aspartic acid)-[cyclic (lysine-alginine-glycine-aspartic acid-D-phenylalanine)]2 [Example 15]", "values": [
      {"measurement": "reduction of absorption in tumor after administration of cyclic RGD (cRGDyV)", "setting": "integrin αvβ3", "value": "≥ 94", "unit": "%"}
    ]},
    {"substance": "cRGDyV [cyclic RGD]", "values": [
      {"measurement": "rate of tumor growth compared with sterilized saline group", "setting": "subcutaneous tumor; 100 μg cyclic RGD (cRGDyV) intraperitoneally everyday", "value": "no meaningful difference"},
      {"measurement": "weight of animals after treatment", "setting": "subcutaneous tumor; 100 μg cyclic RGD (cRGDyV) intraperitoneally everyday, initial measurement 23 g", "value": 30, "unit": "g"},
      {"measurement": "tumor size at 2 week", "setting": "subcutaneous tumor; [1]", "value": 3.9, "unit": "cc"},
      {"measurement": "tumor size at 3 week", "setting": "subcutaneous tumor; [1]", "value": 8.0, "unit": "cc"},
      {"measurement": "tumor size at last week of treatment", "setting": "subcutaneous tumor; [1]", "value": 12.9, "unit": "cc"}
    ]},
    {"substance": "cyclic{(tricarbonyl-[^185/187Re]rhenium-N-α-bis-hydroxycarbonyl methyl-alginine-glycine-aspartic acid-D-phenylalanine} [Example 6]", "values": [
      {"measurement": "tumor size after three days", "setting": "tumor; 600 μCi/200 μL single injection, initial size 0.3 cc, non-administered model 0.65 cc", "value": 0.35, "unit": "cc"}
    ]},
    {"substance": "cyclic{(tricarbonyl-[^188Re]rhenium-N-α-bis-hydroxycarbonyl methyl-glycine-CONH(CH2CH2O)4CH2CH2CONH-lysine)-alginine-glycine-aspartic acid-D-phenylalanine} [Example 11]", "values": [
      {"measurement": "tumor growth suppression ability compared to sterilized saline or cyclic RGD groups", "setting": "subcutaneous tumor; 300 μCi once a week for four weeks", "value": "approximately 50%"},
      {"measurement": "tumor size when the treatment for four weeks was ended", "setting": "subcutaneous tumor; 300 μCi tail vein once a week for four weeks, initial tumor size 0.23 cc", "value": 0.66, "unit": "cc"},
      {"measurement": "tumor growth suppression ability compared to low radiation energy treatment group (300 μCi)", "setting": "subcutaneous tumor; [2]", "value": "approximately 79%"},
      {"measurement": "tumor growth suppression ability compared to sterilized saline and cyclic RGD groups", "setting": "subcutaneous tumor; [2]", "value": "approximately 90%"},
      {"measurement": "tumor size at the end of the treatment", "setting": "subcutaneous tumor; 600 μCi once a week for four weeks, 0.3 cc at initial measurement", "value": 1.4, "unit": "cc"},
      {"measurement": "tumor size at 3 week", "setting": "subcutaneous tumor; [3]", "value": 0.7, "unit": "cc"},
      {"measurement": "tumor size at week 2", "setting": "subcutaneous tumor; [3]", "value": 0.3, "unit": "cc"}
    ]}
  ]
}
